The text below walks through data of the NIST ThermoML archive (doi:10.1016/j.tca.2017.09.003).

The conditions of this data set: Crystal; DTA.

Molecules are shown by their SMILES. ± gives the expanded uncertainty stated by the source.

For the compound `Cc1oncc1C(=O)Nc1ccc(C(F)(F)F)cc1`, the Normal melting temperature is 169.00 ± 2 °C.
